Reference: patent US9125903B2, “Composition useful for the treatment of lipid metabolism disorders” (SIGMA-TAU INDUSTRIE FARMACEUTICHE RIUNITE, S.P.A., priority 2011, dated 2015)

Legend:
Assay type in all cases: in vivo
[1] = tested on: male CD1 mice on high-cholesterol diet; assay: Plasma HDL-cholesterol levels in male CD1 mice on high-cholesterol diet; conditions: for % of increase HDL-cholesterol: VS Cont. (high-cholesterol diet control, group 1); for HDL-cholesterol: plasma, mean values ± S.E., oral twice a day for 17 days and one time on day 18, blood 8 h from last treatment, post-absorptive, monacolin K 2, fish oil 200, hexacosanol 25, resveratrol 5, Coenzyme Q10 50, vitamin B6 0.3, vitamin B12 0.25, L-carnitine 20 mg/kg
Method: (§1) Male CD 1 mice on a high-cholesterol diet (DP/104, Altromin-Rieper) for about 25 days were used. An acclimatization period of seven days was allowed before the start of the high-cholesterol diet.
(§2) Mice were housed inside cages with stainless steel cover-feed and sterilized and dust-free bedding cobs. Animals were housed under a light-dark cycle, keeping temperature and humidity constant. Parameters of the animal rooms are assessed as follows: 22±2° C. temperature, 55±10% relative humidity, about 15-20 filtered air changes/hour and 12 hours circadian cycle of artificial light (7 a.m., 7 p.m.). The environmental conditions were monitored.
(§3) Mice were divided into groups (10 mice per group) and treated orally (1 mL) twice daily with the compounds of the invention or their combinations at the doses reported in the following:
(§4) monacolin K 2 mg/kg (dissolved in water);
(§5) fish oil 200 mg/kg (dissolved in ethanol);
(§6) Hexacosanol 25 mg/kg (dissolved in ethanol);
(§7) resveratrol 5 mg/kg (dissolved in ethanol);
(§8) Coenzyme Q10 50 mg/kg (dissolved in water);
(§9) Vitamin B6 0.3 mg/kg (dissolved in water);
(§10) Vitamin B12 0.25 mg/kg (dissolved in water);
(§11) L-carnitine 20 mg/kg (dissolved in water).
(§12) At the start of treatment, the body weight of the animals was checked and monitoring of the animals' consumption of water and feed was scheduled.
(§13) On day 18, plasma cholesterol, triglyceride and HDL cholesterol were evaluated. […]

[2] = tested on: male CD1 mice on high-cholesterol diet; assay: Plasma triglycerides levels in male CD1 mice on high-cholesterol diet; design: % Reduction triglycerides: concentration or dose not given beside the values; conditions: for % Reduction triglycerides: VS Cont. (high-cholesterol diet control, group 1); for Triglycerides (mg/dL) Mean values ± S.E.: plasma, oral twice a day for 17 days and one time on day 18, blood 8 h from last treatment, post-absorptive, monacolin K 2, fish oil 200, hexacosanol 25, resveratrol 5, Coenzyme Q10 50, vitamin B6 0.3, vitamin B12 0.25, L-carnitine 20 mg/kg
Method: as §1, §2, §3, §4, §5, §6, §7, §8, §9, §10, §11, §12, §13

[3] = tested on: male CD1 mice on high-cholesterol diet; assay: Plasma total cholesterol levels in male CD1 mice on high-cholesterol diet; design: % Reduction total cholesterol: concentration or dose not given beside the values; conditions: for % Reduction total cholesterol: VS Cont. (high-cholesterol diet control, group 1); for Total-cholesterol (mg/dL) Mean values ± S.E.: plasma, oral twice a day for 17 days and one time on day 18, blood 8 h from last treatment, post-absorptive, monacolin K 2, fish oil 200, hexacosanol 25, resveratrol 5, Coenzyme Q10 50, vitamin B6 0.3, vitamin B12 0.25, L-carnitine 20 mg/kg
Method: as §1, §2, §3, §4, §5, §6, §7, §8, §9, §10, §11, §12, §13

| Molecule | % of increase HDL-cholesterol [1] | HDL-cholesterol [1] [mg/dL] | % Reduction triglycerides [2] [%] | Triglycerides (mg/dL) Mean values ± S.E. [2] [mg/dL] | % Reduction total cholesterol [3] [%] | Total-cholesterol (mg/dL) Mean values ± S.E. [3] [mg/dL] |
| --- | --- | --- | --- | --- | --- | --- |
| CC[C@H](C)C(=O)O[C@H]1C[C@@H](C)C=C2C=C[C@H](C)[C@H](CC[C@@H]3C[C@@H](O)CC(=O)O3)[C@H]21 [Monacolin K, monacolin K] | +10% | 25.3 ± 2.1 | −8 | 186.3 ± 20.8 | −21 | 289.7 ± 21.0 |
| COC1=C(OC)C(=O)C(C/C=C(\C)CC/C=C(\C)CC/C=C(\C)CC/C=C(\C)CC/C=C(\C)CC/C=C(\C)CC/C=C(\C)CC/C=C(\C)CC/C=C(\C)CCC=C(C)C)=C(C)C1=O [Coenzyme Q10] | +4% | 23.9 ± 2.2 | −3 | 196.4 ± 22.1 | −3 | 355.8 ± 25.2 |
| CCCCCCCCCCCCCCCCCCCCCCCCCCO [Hexacosanol] | +15% | 26.4 ± 2.0 | −15 | 172.1 ± 12.3 | −16 | 307.2 ± 23.9 |
| C[N+](C)(C)C[C@H](O)CC(=O)[O-] [L-carnitine] | +21% | 27.8 ± 2.1 | −5 | 192.3 ± 16.4 | −12 | 322.8 ± 21.1 |
| Cc1ncc(CO)c(CO)c1O.Cl [Vitamin B6] | +5% | 24.1 ± 2.5 | −4 | 194.3 ± 16.7 | −5 | 348.5 ± 18.5 |
| Oc1ccc(/C=C/c2cc(O)cc(O)c2)cc1 [Resveratrol, trans-3,4′,5-trihydroxystilbene] | +3% | 23.7 ± 1.9 | −22 | 157.9 ± 12.4 | −4 | 352.1 ± 19.1 |
| cobalamin [Vitamin B12] | +5% | 24.3 ± 23 | −4 | 194.5 ± 17.4 | −4 | 352.1 ± 20.2 |
